Several values for one entry are separate records, joined by “and”; a condition that tells them apart may be missing. Identical values can stand only once.

Compound `CCOC(=O)c1sc(N)nc1C` [ethyl 2-amino-4-methylthiazole-5-carboxylate] showed a melting point of 174 °C. In turn, `CC(=O)NS(=O)(=O)c1ccc(N)cc1` [N-[(4-Aminophenyl)sulfonyl]acetamide] displayed a melting point of 182 °C. Regarding `COc1cc(CNC(=O)CCCC/C=C/C(C)C)ccc1O` [(6E)-N-(4-Hydroxy-3-methoxybenzyl)-8-methylnon-6-enamide], the melting point worked out at 66 °C. In the case of `C=CCOc1ccc(CC(=O)O)cc1Cl` [Epinal] it was 92 °C; in that of `O=C(O)c1ccc2cc(O)ccc2c1` [6-hydroxy-2-naphthoic acid], 249 °C; in that of `CC(C)c1cccc(C(C)C)c1O` [2,6-diisopropylphenol], 18 °C. In the case of `ClC(Cl)=C(Cl)C(Cl)=C(Cl)Cl` [hexachloro-1,3-butadiene] it was -21 °C; in that of `CC(=O)Oc1cccc(-c2ccccc2)c1` [3-acetoxybiphenyl], 34 °C; in that of `SCCS` [Ethane-1,2-dithiol], -41 °C.

`NC1CCCCC1` [Cyclohexanamine] had a melting point of -18 °C.

Compound `COC(=O)OC` [dimethyl_carbonate] registered a melting point of 3 °C. In the case of `O=C(O)C(O)[C@H](O)C(=O)O` (stereo in doubt) [D-tartaric acid] it was 169 °C. In turn, `O=c1c2ccccc2oc2ccccc12` [xanthone] returned a melting point of 176 °C.

With `CCC(C)CC(=O)O` (centres undefined) [3-methylvaleric acid], the melting point was -42 °C. The compound `O=Cc1cccc(C=O)c1` [isophthalaldehyde] registered a melting point of 89 °C. In the case of `CCOC(=O)CC(C)C` [ethyl isovalerate] it was -99 °C; in that of `CC1(C)C(=O)[C@]2(C)CC[C@H]1C2` [fenchone], 4 °C. `O=C(CC(=O)c1ccccc1)c1ccccc1` [1,3-Diphenylpropane-1,3-dione]: the melting point is 77 °C. In turn, `Cc1ccnc(NS(=O)(=O)c2ccc(N)cc2)n1` [Sulfamerazine] had a melting point of 235 °C. In turn, `CC(=O)c1ccc(C(F)(F)F)cc1` [4'-(trifluoromethyl)acetophenone] yielded a melting point of 32 °C.

`N#Cc1cccc(-c2ccccc2)c1` [m-cyanobiphenyl]: the melting point was 49 °C. With `O=c1ccc2ccccc2[nH]1` [2-hydroxyquinoline] the figure was 198 °C; with `O=C(c1ccc(Br)cc1)c1ccc(Br)cc1` [p,p'-dibromobenzophenone], 175 °C; with `O=C1C=CC(=O)c2ccccc21` [1,4-naphthoquinone], 122 °C. With `CC(C)C(C)C` [2,3-Dimethylbutane] the figure was -128 °C; with `Cn1ccnc1I` [2-iodo-1-methylimidazole], 81 °C. `NC(=O)c1ccccc1` [Benzamide] yielded a melting point of 127 °C. With `OCCCCO` [1,4-butanediol] the figure was 20 °C; with `CCNc1nsc2ccccc12` [etisazol], 78 °C. Consider `NC(=S)Nc1cccc2ccccc12` [N-(1-naphthyl)thiourea], for which the melting point came to 188 °C.

Turning to `O=[N+]([O-])c1ccccc1C=NO` [2-nitrobenzaldoxime], the melting point worked out at 100 °C. Consider `O=C1OC(c2ccc(O)c3ccccc23)(c2ccc(O)c3ccccc23)c2ccccc21` [alpha-naphtholphthalein], for which the melting point is 239 °C. In the case of `NCC(=O)O` [glycine] it was 262 °C. The compound `OB(O)c1ccccc1O` [2-hydroxybenzeneboronic acid] had a melting point of 185 °C. In the case of `OB(O)c1cccnc1OCc1ccccc1` [2-benzyloxypyridine-3-boronic acid] it was 146 °C; in that of `Cc1cc([N+](=O)[O-])cc[n+]1[O-]` [4-nitro-2-picoline n-oxide], 156 °C; in that of `O=C(c1ccccc1)c1ccccc1Cl` [2-chlorobenzophenone], 46 °C. With `NC(=O)c1cccc(Cl)c1Cl` [2,3-dichlorobenzamide] the figure was 167 °C. In turn, `CCCCCCCCCCCCCC(=O)CCCCCCCCCCCCC` [14-heptacosanone] registered a melting point of 78 °C.

For `c1ccc2c(c1)Cc1ccccc1O2` [Xanthene], the melting point stood at 101 °C. `CC(=O)Oc1ccc([N+](=O)[O-])cc1` [4-Nitrophenyl acetate] showed a melting point of 78 °C. With `C=Cc1cccc([N+](=O)[O-])c1` [3-nitrostyrene] the figure was -5 °C; with `CN(C)c1ccc(C=O)cc1` [4-dimethylaminobenzaldehyde], 74 °C. With `BrCCCCCCBr` [1,6-dibromohexane] the figure was -2 °C. In the case of `C=CCCC` [1-pentene] it was -162 °C; in that of `ClC1CCCC1` [chlorocyclopentane], -94 °C; in that of `O=C(O)c1ccccc1C(=O)O` [phthalic_acid], 210 °C. Take `CCOC(=O)c1ccc(-n2c(C)cc(C=O)c2C)cc1` [OSM-S-46]: the melting point came to 113 °C.

In the case of `O=C(O)c1cc(O)ccc1O` [2,5-Dihydroxybenzoic acid], the melting point amounted to 206 °C. In the case of `ClCCOCCCl` [1-Chloro-2-(2-chloroethoxy)ethane] it was -47 °C; in that of `Nc1ccccc1NNc1ccccc1` [2-(2-phenylhydrazino)aniline], 107 °C; in that of `NC1CCCCC1` [cyclohexylamine], -17 °C and -17.7 °C.

Compound `Cc1cccc(C=O)n1` [6-methylpyridine-2-carboxaldehyde] displayed a melting point of 31 °C. The compound `CC(=O)OO` [Ethaneperoxoic acid] had a melting point of 0.1 °C. With `Nc1ccc(-c2ccc3nn(-c4ccccc4)nc3c2)cc1` [4-(2-phenyl-2H-benzotriazol-5-yl)aniline] the figure was 143 °C; with `Clc1cccc2ccccc12` [1-chloronaphthalene], -8 °C; with `Cc1cccc(OCC(O)CNC(C)(C)C)c1C` (centres undefined) [xibenolol], 57 °C. With `O=C/C=C/c1ccccc1` [(2E)-3-Phenylacrylaldehyde] the figure was -7 °C; with `COc1ccccc1N/N=C1\C(=O)N(CN2CCCCC2)N=C1C`, 149 °C. In the case of `C/C=C\C(C)C` [4-methyl-cis-2-pentene] it was -134 °C. As for `O=C2\C(=C(/N(N2c1ccccc1)C)C)N(C)C` [aminopyrine], the melting point was 108 °C. The compound `C1O[C@@H]1[C@H]1CO1` [butadiene diepoxide] registered a melting point of -19 °C.

As for `Cc1cc(NS(=O)(=O)c2ccc(N)cc2)nc(C)n1` [Sulfisomidine], the melting point came out at 243 °C. In turn, `CCCCC#N` [Valeronitrile] came in with a melting point of -96 °C.

For `CCCCCCCC` [N-octane], the melting point was -57 °C. In the case of `NC(=O)c1cnccn1` [Pyrazinamide] it was 192 °C; in that of `O=C(O)C1CCCC1` [cyclopentanecarboxylic acid], -7 °C. Compound `C=CCCCCCCCCCCCCC` [1-pentadecene] had a melting point of -4 °C. In the case of `CCC1(C2=CCCCCC2)C(=O)NC(=O)NC1=O` [Heptabarbital] it was 174 °C.

Values taken from the Bradley open melting point set (2014).
